Converted amounts (≈) assume the structure as drawn.
What was measured:
[1] = system: human hepatic cell line (HepG2 ATCC HB-8065); experiment: Human cell viability assay (CellTiter-Glo); conditions: Homo sapiens, HepG2, 24 h, read-out: IC50 (μg/mL) HepG2
[2] = system: E. coli ATCC BAA-2452; experiment: MIC, broth microdilution (CLSI) versus planktonic bacteria; format: cell-based; conditions: Escherichia coli ATCC BAA-2452; 16-20 h; mode of three independent experiments; read-out: MIC, Ec ATCC BAA 2452
[3] = system: Escherichia coli ATCC 25922; experiment: as above; format: cell-based; conditions: ATCC25922; Escherichia coli ATCC 25922; 16-20 h; mode of three independent experiments; read-out: MIC, Ec ATCC 25922
[4] = system: Staphylococcus aureus ATCC 29213; experiment: as above; format: cell-based; conditions: ATCC29213; Staphylococcus aureus ATCC 29213; 16-20 h; mode of three independent experiments; read-out: MIC, Sa ATCC 29213
[5] = system: Haemophilus influenzae ATCC 49247; experiment: as above; format: cell-based; conditions: ATCC49247; Haemophilus influenzae ATCC 49247; 16-20 h; mode of three independent experiments; read-out: MIC, Hi ATCC 49247
[6] = system: Enterobacter cloacae NCTC 13406; experiment: as above; format: cell-based; conditions: NCTC13406; Enterobacter cloacae NCTC 13406; 16-20 h; mode of three independent experiments; read-out: MIC, Ecl NCTC 13406
[7] = system: Acinetobacter baumannii ATCC 19606; experiment: as above; format: cell-based; conditions: ATCC19606; Acinetobacter baumannii ATCC 19606; 16-20 h; mode of three independent experiments; read-out: MIC, Ab ATCC 19606
[8] = system: Acinetobacter baumannii NCTC 13420; experiment: as above; format: cell-based; conditions: NCTC13420; Acinetobacter baumannii NCTC 13420; 16-20 h; mode of three independent experiments; read-out: MIC, Ab NCTC 13420
[9] = system: E. coli MG1655 D87G; format: cell-based, Escherichia coli; conditions: compared to the isogenic parent strain E. coli MG1655; D87G mutation on DNA gyrase subunit GyrA
[10] = system: Streptococcus pneumoniae ATCC 49619; experiment: MIC, broth microdilution (CLSI) versus planktonic bacteria; format: cell-based; conditions: ATCC49619; Streptococcus pneumoniae ATCC 49619; 16-20 h; mode of three independent experiments; read-out: MIC, Sp ATCC 49619
[11] = system: E. coli MG1655; experiment: as above; format: cell-based, Escherichia coli; conditions: Escherichia coli, MG1655, read-out: MIC, Ec MG1655 WT
[12] = system: E. coli MG1655 S83L; format: cell-based, Escherichia coli; conditions: compared to the isogenic parent strain E. coli MG1655; S83L mutation on DNA gyrase subunit GyrA
[13] = system: E. coli NCTC 13476; experiment: MIC, broth microdilution (CLSI) versus planktonic bacteria; format: cell-based; conditions: NCTC13476; Escherichia coli NCTC 13476; 16-20 h; mode of three independent experiments; read-out: MIC, Ec NCTC 13476
[14] = system: Pseudomonas aeruginosa ATCC 27853; experiment: as above; format: cell-based; conditions: ATCC27853; Pseudomonas aeruginosa ATCC 27853; 16-20 h; mode of three independent experiments; read-out: MIC, Pa ATCC 27853

| Compound | IC50 [1] | MIC [2] | MIC [3] | MIC [4] | MIC [5] | MIC [6] | MIC [7] | MIC [8] | Fold increase in MIC, E. coli MG1655 D87G [9] | MIC [10] | MIC [11] | Fold increase in MIC, E. coli MG1655 S83L [12] | MIC [13] | MIC [14] |
| --- | --- | --- | --- | --- | --- | --- | --- | --- | --- | --- | --- | --- | --- | --- |
| COc1ccc2ncc(=O)n(CCN[C@H]3CC[C@H]4[C@@H](C3)OC(=O)N4c3ccc4c(n3)NC(=O)CO4)c2c1 [Compound 24, 1-(2-{[(3aS,6S,7aR)-2-oxo-3-{3-oxo-2H,3H,4H-pyrido[3,2-b][1,4]oxazin-6-yl}-octahydro-1,3-benzoxazol-6-yl]amino}ethyl)-7-methoxy-1,2-dihydroquinoxalin-2-one] | > 100 µg/mL | < 1 µg/mL | < 1 µg/mL | < 1 µg/mL | < 1 µg/mL | < 1 µg/mL | < 1 µg/mL | < 1 µg/mL | 2 fold | < 1 µg/mL | < 1 µg/mL | 2 fold | < 1 µg/mL | < 1 µg/mL |
| COc1ccc2ccc(=O)n(CCCN[C@H]3CC[C@H]4[C@H](C3)OC(=O)N4c3ccc4c(n3)NC(=O)CS4)c2n1 [Compound 85, 1-(3-{[(3aS,6S,7aS)-2-oxo-3-{3-oxo-2H,3H,4H-pyrido[3,2-b][1,4]thiazin-6-yl}-octahydro-1,3-benzoxazol-6-yl]amino}propyl)-7-methoxy-1,2-dihydro-1,8-naphthyridin-2-one] | 10 to 100 µg/mL (≈ 18.6 to 186 µM) | < 1 µg/mL | < 1 µg/mL | < 1 µg/mL | < 1 µg/mL | < 1 µg/mL | < 1 µg/mL | < 1 µg/mL | 1 fold | < 1 µg/mL | < 1 µg/mL | 1 fold | < 1 µg/mL | 1 to 10 µg/mL (≈ 1.86 to 18.6 µM) |
| O=C1COc2ccc(N3C(=O)O[C@H]4C[C@@H](NCCCn5c(=O)ccc6ncc(OC(F)F)cc65)CC[C@@H]43)nc2N1 [Compound 93, 1-(3-{[(3aS,6S,7aS)-2-oxo-3-{3-oxo-2H,3H,4H-pyrido[3,2-b][1,4]oxazin-6-yl}-octahydro-1,3-benzoxazol-6-yl]amino}propyl)-7-(difluoromethoxy)-1,2-dihydro-1,5-naphthyridin-2-one] | > 100 µg/mL | < 1 µg/mL | < 1 µg/mL | < 1 µg/mL | < 1 µg/mL | 1 to 10 µg/mL (≈ 1.8 to 18 µM) | < 1 µg/mL | < 1 µg/mL | 1 fold | < 1 µg/mL | < 1 µg/mL | 1 fold | < 1 µg/mL | < 1 µg/mL |
| O=C1COc2ccc(N3C(=O)O[C@H]4C[C@@H](NCCCn5c(=O)cnc6cc(F)c(F)cc65)CC[C@@H]43)nc2N1 [Compound 90, 1-(3-{[(3aS,6S,7aS)-2-oxo-3-{3-oxo-2H,3H,4H-pyrido[3,2-b][1,4]oxazin-6-yl}-octahydro-1,3-benzoxazol-6-yl]amino}propyl)-6,7-difluoro-1,2-dihydroquinoxalin-2-one] | 10 to 100 µg/mL (≈ 19 to 190 µM) | < 1 µg/mL | < 1 µg/mL | < 1 µg/mL | < 1 µg/mL | < 1 µg/mL | < 1 µg/mL | < 1 µg/mL | 4 fold | < 1 µg/mL | < 1 µg/mL | 2 fold | < 1 µg/mL | 1 to 10 µg/mL (≈ 1.9 to 19 µM) |
| COc1ccc2ccc(=O)n(CCN[C@H]3CC[C@H]4[C@H](C3)OC(=O)N4c3ncc4c(n3)NC(=O)CO4)c2n1 [Compound 67, 1-(2-{[(3aS,6S,7aS)-2-oxo-3-{7-oxo-6H,7H,8H-pyrimido[5,4-b][1,4]oxazin-2-yl}-octahydro-1,3-benzoxazol-6-yl]amino}ethyl)-7-methoxy-1,2-dihydro-1,8-naphthyridin-2-one] | > 100 µg/mL | 1 to 10 µg/mL (≈ 1.97 to 19.7 µM) | < 1 µg/mL | < 1 µg/mL | < 1 µg/mL | 1 to 10 µg/mL (≈ 1.97 to 19.7 µM) | 1 to 10 µg/mL (≈ 1.97 to 19.7 µM) | < 1 µg/mL | 1 fold | < 1 µg/mL | < 1 µg/mL | 1 fold | 1 to 10 µg/mL (≈ 1.97 to 19.7 µM) | 1 to 10 µg/mL (≈ 1.97 to 19.7 µM) |
| N#Cc1ccc2ccc(=O)n(CCCN[C@@H]3CC[C@@H]4[C@@H](C3)OC(=O)N4c3ccc4c(n3)NC(=O)CO4)c2c1 [Compound 74, 1-(3-{[(3aR,6R,7aR)-2-oxo-3-{3-oxo-2H,3H,4H-pyrido[3,2-b][1,4]oxazin-6-yl}-octahydro-1,3-benzoxazol-6-yl]amino}propyl)-2-oxo-1,2-dihydroquinoline-7-carbonitrile] | 10 to 100 µg/mL (≈ 19.4 to 194 µM) | < 1 µg/mL | < 1 µg/mL | < 1 µg/mL | < 1 µg/mL | < 1 µg/mL | < 1 µg/mL | < 1 µg/mL | 1 fold | < 1 µg/mL | < 1 µg/mL | 1 fold | < 1 µg/mL | < 1 µg/mL |
| N#Cc1ccc2ccc(=O)n(CCN[C@H]3CC[C@H]4[C@@H](C3)OC(=O)N4c3ccc4c(n3)NC(=O)CO4)c2n1 [Compound 15, 8-(2-{[(3aS,6S,7aR)-2-oxo-3-{3-oxo-2H,3H,4H-pyrido[3,2-b][1,4]oxazin-6-yl}-octahydro-1,3-benzoxazol-6-yl]amino}ethyl)-7-oxo-7,8-dihydro-1,8-naphthyridine-2-carbonitrile] | 10 to 100 µg/mL (≈ 19.9 to 199 µM) | 1 to 10 µg/mL (≈ 1.99 to 19.9 µM) | < 1 µg/mL | < 1 µg/mL | 1 to 10 µg/mL (≈ 1.99 to 19.9 µM) | 1 to 10 µg/mL (≈ 1.99 to 19.9 µM) | 1 to 10 µg/mL (≈ 1.99 to 19.9 µM) | 1 to 10 µg/mL (≈ 1.99 to 19.9 µM) | 1 fold | < 1 µg/mL | 1 to 10 µg/mL (≈ 1.99 to 19.9 µM) | 1 fold | 1 to 10 µg/mL (≈ 1.99 to 19.9 µM) | 1 to 10 µg/mL (≈ 1.99 to 19.9 µM) |
| N#Cc1cnc2ccc(=O)n(CCN[C@H]3CC[C@H]4[C@H](C3)OC(=O)N4c3ccc4c(n3)NC(=O)CO4)c2c1 [Compound 55, 5-(2-{[(3aS,6S,7aS)-2-oxo-3-{3-oxo-2H,3H,4H-pyrido[3,2-b][1,4]oxazin-6-yl}-octahydro-1,3-benzoxazol-6-yl]amino}ethyl)-6-oxo-5,6-dihydro-1,5-naphthyridine-3-carbonitrile] | > 100 µg/mL | < 1 µg/mL | < 1 µg/mL | < 1 µg/mL | < 1 µg/mL | < 1 µg/mL | < 1 µg/mL | < 1 µg/mL | 1 fold | < 1 µg/mL | < 1 µg/mL | 1 fold | < 1 µg/mL | – |
| N#Cc1ccc2ccc(=O)n(CCN[C@H]3CC[C@H]4[C@H](C3)OC(=O)N4c3ccc4c(n3)NC(=O)CO4)c2c1 [Compound 56, 1-(2-{[(3aS,6S,7aS)-2-oxo-3-{3-oxo-2H,3H,4H-pyrido[3,2-b][1,4]oxazin-6-yl}-octahydro-1,3-benzoxazol-6-yl]amino}ethyl)-2-oxo-1,2-dihydroquinoline-7-carbonitrile] | 10 to 100 µg/mL (≈ 20 to 200 µM) | < 1 µg/mL | < 1 µg/mL | < 1 µg/mL | < 1 µg/mL | < 1 µg/mL | < 1 µg/mL | < 1 µg/mL | 2 fold | < 1 µg/mL | < 1 µg/mL | 1 fold | < 1 µg/mL | – |
| O=C1COc2ccc(N3C(=O)O[C@H]4C[C@@H](NCCn5c(=O)cnc6ccc(F)cc65)CC[C@@H]43)nc2N1 [Compound 84, 1-(2-{[(3aS,6S,7aS)-2-oxo-3-{3-oxo-2H,3H,4H-pyrido[3,2-b][1,4]oxazin-6-yl}-octahydro-1,3-benzoxazol-6-yl]amino}ethyl)-7-fluoro-1,2-dihydroquinoxalin-2-one] | 10 to 100 µg/mL (≈ 20.2 to 202 µM) | < 1 µg/mL | < 1 µg/mL | < 1 µg/mL | < 1 µg/mL | < 1 µg/mL | < 1 µg/mL | – | 1 fold | < 1 µg/mL | < 1 µg/mL | 1 fold | < 1 µg/mL | 1 to 10 µg/mL (≈ 2.02 to 20.2 µM) |

Source: US10487093B2, “Heterocyclic compounds, in particular 2-oxo-4,4,5,5,6,6,7,7-octahydrobenzoxazole derivatives, and their use as antibacterial compounds” (priority 2016, dated 2019)
